From ChEMBL document CHEMBL1141745, “New Sesquiterpene Lactones from Illicium floridanum” (J Nat Prod, 1998)

Assay: Neurotoxicity against ip dosed mouse
Format: toxicity, organism-based
Conditions: in vivo

For `C[C@@H]1C[C@@H](O)[C@@]2(O)[C@@]13C[C@@H](OC(=O)[C@H]3O)[C@](C)(O)[C@@]21COC1=O` [ANISATIN], which LD50 is on record?
The LD50 was 1 mg/kg.
